Active and inactive are the calls of the source.
Key:
Beta-galactosidase = Beta-galactosidase (Escherichia coli, UniProt Q8VNN2); test: Dose response counterscreen for EBI2 assay utilizing the enzyme, b-galactosidase.; assay type: functional
Galanin receptor type 3 = Galanin receptor type 3 (Homo sapiens, UniProt O60755); test: Fluorescence-based cell-based primary high throughput dose response assay to identify antagonists of the Galanin Receptor 3 (GalR3).; assay type: functional
cells [1] = assay type: functional, cell-based; conditions: HEK-CNG
[2] = target: ADP-ribosylation factor GTPase-activating protein 1 (Rattus norvegicus, UniProt Q62848); test: Fluorescence polarization-based biochemical high throughput dose response screening assay to identify inhibitors of ADP-ribosylation factor GTPase activating protein 1 (ARFGAP1).; assay type: functional
[3] = HGIII-sPLA2 enzyme inhibition potency – biochemical, QFRET, IC50, dose response (AID 743457);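 note: green fluorescence rise as the enzyme cleaves BODIPY PC-A2 in liposomes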
[4] = target: Induced myeloid leukemia cell differentiation protein Mcl-1 (Homo sapiens, UniProt Q07820); assay type: functional
[5] = target: T1, Small ubiquitin-related modifier 1 (Homo sapiens, UniProt P63165); test: SUMO1 protein interaction blockers, potency – biochemical, fluorescence polarization, uHTS hits, dose response (AID 624382); assay type: functional; conditions: read-out: IC50_Mean
[6] = target: T1, Small ubiquitin-related modifier 1; test: SUMO1 protein-protein binding blockers, potency – biochemical, FRET, dose response (AID 624383); assay type: functional; conditions: read-out: IC50_Mean
[7] = A549 cell cytotoxicity, dose response, cytotoxicity control, plate reader, cherry-pick, antagonist series (AID 743412); assay type: functional, cell-based
[8] = toxicity toward HepG2 liver cells – cell-based, plate reader, cherry-pick, antagonist series, cytotoxicity control, dose response (AID 743416); assay type: functional
[9] = blockers of bursicon-stimulated LGR2 cAMP reporter – cell-based, HEK293, CRE-luciferase reporter, cherry pick, set 2, dose response (AID 743343); assay type: functional;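 note: transfected cells were stimulated with diluted bursicon conditioned medium after compound addition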
[10] = blockade of melanocortin 4 receptor signaling – cell-based, plate reader, cherry pick, counter-screen for LGR2 antagonist project, dose response (AID 743444); assay type: functional;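 note: transfected HEK 293 cells stimulated with alpha-MSH peptide; potency of inhibitors of the alpha-MSH evoked signal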
[11] = viability loss in HEK293 cells – cell-based, plate reader, cherry-picked samples, cytotoxicity control, dose response (AID 743446); assay type: functional
INS1 = test: INS-1E survival protection against cytokine death – cell-based, luminescence, retest, dose response (AID 449756); assay type: functional; conditions: Rattus norvegicus;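 note: cell death triggered by IL-1 beta plus TNF-alpha plus IFN-gamma mixture; protective hits raise ATP signal compared with cytokine alone wells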
[12] = reduction of Shn3 3'UTR-driven luciferase in osteoblasts – cell-based, Clone20 osteoblasts, firefly luciferase, cherry-picked, dose response (AID 624132); assay type: functional;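 note: firefly luciferase luminescence from reporter carrying the Shn3 3'UTR in osteoblasts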
[13] = loss of viability in HepG2 cells – cell-based, CellTiter-Glo, cherry-picked, cytotoxicity control for Shn3 inhibitor project, dose response (AID 624134); assay type: functional
[14] = non-specific 3'UTR reporter inhibition in Clone20-Shn3RL – cell-based, Renilla luciferase, cherry-picked, counter-screen for Shn3 inhibitor project, dose response (AID 624133); assay type: functional
[15] = target: T2, COUP transcription factor 2 (Homo sapiens, UniProt P24468); test: Luminescence-based cell-based high throughput dose response assay to identify inhibitors of COUP-TFII (NR2F2).; assay type: functional;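 note: HEK293 cells transiently cotransfected with COUP-TFII expression vector and reporter; luciferase reporter luminescence driven by COUP-TFII from the pX2-168 reporter plasmid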
T2 sequence (P24468 whole entry): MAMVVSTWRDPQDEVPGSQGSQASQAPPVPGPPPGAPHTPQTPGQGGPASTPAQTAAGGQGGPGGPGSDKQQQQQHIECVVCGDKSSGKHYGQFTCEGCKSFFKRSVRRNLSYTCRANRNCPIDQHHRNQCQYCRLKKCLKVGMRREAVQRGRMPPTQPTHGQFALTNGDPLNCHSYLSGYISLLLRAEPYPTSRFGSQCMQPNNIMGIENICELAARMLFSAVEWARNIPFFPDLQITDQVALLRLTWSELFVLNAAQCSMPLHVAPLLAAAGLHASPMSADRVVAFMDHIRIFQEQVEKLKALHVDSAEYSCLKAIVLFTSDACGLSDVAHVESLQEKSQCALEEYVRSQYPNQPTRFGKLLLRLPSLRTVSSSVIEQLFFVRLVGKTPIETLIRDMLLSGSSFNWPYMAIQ

Mu-type opioid receptor = Mu-type opioid receptor (Homo sapiens, UniProt P35372); assay type: functional, cell-based;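 note: U2OS cells with beta-arrestin recruitment to OPRM1 by beta-gal complementation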
[16] = target: 5-hydroxytryptamine receptor 2A (Mus musculus, UniProt P35363); assay type: functional, cell-based;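 note: CHO-K1 cells with tagged receptor and beta-arrestin; agonist potency measured as compound-induced activation of the receptor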
cells [17] = assay type: functional, cell-based
[18] = target: T3, Nuclear receptor subfamily 0 group B member 1 (Homo sapiens, UniProt P51843); assay type: functional, cell-based;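 note: HEK293T cells transfected with SF-1 and DAX-1 plus StAR promoter luciferase reporter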
T3 sequence (P51843 whole entry): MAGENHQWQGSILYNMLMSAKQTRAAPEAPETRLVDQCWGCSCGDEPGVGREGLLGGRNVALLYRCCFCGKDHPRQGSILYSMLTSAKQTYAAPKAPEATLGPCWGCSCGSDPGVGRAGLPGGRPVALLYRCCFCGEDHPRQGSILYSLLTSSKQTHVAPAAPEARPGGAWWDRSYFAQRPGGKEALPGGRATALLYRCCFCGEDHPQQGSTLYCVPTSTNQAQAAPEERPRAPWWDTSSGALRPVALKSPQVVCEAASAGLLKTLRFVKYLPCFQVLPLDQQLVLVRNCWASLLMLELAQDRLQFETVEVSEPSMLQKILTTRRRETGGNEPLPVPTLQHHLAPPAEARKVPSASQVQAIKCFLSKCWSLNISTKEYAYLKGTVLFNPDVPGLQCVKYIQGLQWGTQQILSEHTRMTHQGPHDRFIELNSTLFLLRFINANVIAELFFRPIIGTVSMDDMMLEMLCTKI

[19] = target: T4, Sentrin-specific protease 8 (Homo sapiens, UniProt Q96LD8); assay type: functional
T4 sequence (Q96LD8 whole entry): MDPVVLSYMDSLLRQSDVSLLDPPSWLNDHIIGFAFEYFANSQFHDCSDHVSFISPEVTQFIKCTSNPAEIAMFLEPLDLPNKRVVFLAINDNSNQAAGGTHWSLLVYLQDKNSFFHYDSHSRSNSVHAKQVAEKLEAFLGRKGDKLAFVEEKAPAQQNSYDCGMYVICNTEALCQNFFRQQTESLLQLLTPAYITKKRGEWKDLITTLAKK

[20] = target: T4, Sentrin-specific protease 8; assay type: functional; remark: listed apart in the source
Beta Lactamase = Beta Lactamase (Pseudomonas aeruginosa, UniProt Q932Y6);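 note: confirmatory high-throughput screen measuring VIM-2 metallo-beta-lactamase inhibition by epi-absorbance in dose response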
Beta-lactamase [21] = target: Beta-lactamase (Pseudomonas aeruginosa, UniProt Q79MP6);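 note: biochemical dose-response test of metallo-beta-lactamase enzyme inhibition, read out by epi-absorbance; purified recombinant IMP-1 metallo-beta-lactamase with nitrocefin as substrate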
Beta-lactamase [22] = target: Beta-lactamase (Salmonella choleraesuis (strain SC-B67), UniProt Q5J463)
[23] = target: 26S proteasome non-ATPase regulatory subunit 14 (Homo sapiens, UniProt O00487); test: inhibition of proteasome subunit RPN11 – biochemical, fluorescence polarization, uHTS hits, confirmation (AID 602368); assay type: functional
[24] = target: 72 kDa type IV collagenase (Homo sapiens, UniProt P08253); test: Dose Response validation of uHTS RPN11 inhibitor hits using a MMP-2 Fluorescence assay.; assay type: functional
Prothrombin = Prothrombin (Bos taurus, UniProt P00735); test: thrombin protease inhibitors – biochemical, fluorescence polarization, uHTS hits, dose response (AID 602369); assay type: functional
[25] = target: T5, Low molecular weight phosphotyrosine protein phosphatase (Homo sapiens, UniProt P24666); assay type: functional; conditions: read-out: IC50_Mean
T5 sequence (P24666 whole entry): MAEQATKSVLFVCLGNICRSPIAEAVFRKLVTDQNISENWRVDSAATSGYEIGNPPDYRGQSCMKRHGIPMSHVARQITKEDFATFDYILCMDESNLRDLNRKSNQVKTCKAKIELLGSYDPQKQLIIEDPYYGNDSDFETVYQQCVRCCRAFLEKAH

[26] = target: T5, Low molecular weight phosphotyrosine protein phosphatase; assay type: functional; conditions: read-out: IC50_Mean; remark: listed apart in the source
cells [27] = assay type: functional, cell-based; remark: listed apart in the source
[28] = target: T6, Trace amine-associated receptor 1 (Homo sapiens, UniProt Q96RJ0); test: Fluorescence-based cell-based high throughput dose response assay to identify agonists of the human trace amine associated receptor 1 (TAAR1).; assay type: functional
T6 sequence (Q96RJ0 whole entry): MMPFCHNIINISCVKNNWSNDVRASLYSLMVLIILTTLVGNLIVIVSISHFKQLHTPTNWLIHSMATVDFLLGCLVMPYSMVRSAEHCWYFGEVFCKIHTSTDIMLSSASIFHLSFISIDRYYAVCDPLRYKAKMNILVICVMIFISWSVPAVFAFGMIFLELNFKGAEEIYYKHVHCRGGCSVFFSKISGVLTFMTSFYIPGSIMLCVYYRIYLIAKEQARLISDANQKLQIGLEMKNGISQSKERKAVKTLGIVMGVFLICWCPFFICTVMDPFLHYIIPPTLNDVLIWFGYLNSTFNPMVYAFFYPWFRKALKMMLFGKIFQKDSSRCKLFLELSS

[29] = target: T6, Trace amine-associated receptor 1; test: Counterscreen for agonists of the human trace amine associated receptor 1 (hTAAR1): Fluorescence-based cell-based high throughput dose response assay to identify hTAAR1 agonist that also desensitize TAAR1 receptor response.; assay type: functional
cells [30] = assay type: functional, cell-based; remark: listed apart in the source
[31] = target: T7, Voltage-gated N-type calcium channel alpha-1B subunit/Amyloid beta A4 precursor protein-binding family A member 1 (Homo sapiens, UniProt Q00975+Q02410); assay type: protein assay
[32] = target: T7, Voltage-gated N-type calcium channel alpha-1B subunit/Amyloid beta A4 precursor protein-binding family A member 1; assay type: protein assay; remark: listed apart in the source
[33] = target: T8, Rac GTPase-activating protein 1 (Homo sapiens, UniProt Q9H0H5); test: blockers of MgcRacGAP-driven Rac1 GTP hydrolysis – biochemical, ADP Hunter fluorescence, primary and confirmatory, confirmation (AID 624330); assay type: functional
T8 sequence (Q9H0H5 whole entry): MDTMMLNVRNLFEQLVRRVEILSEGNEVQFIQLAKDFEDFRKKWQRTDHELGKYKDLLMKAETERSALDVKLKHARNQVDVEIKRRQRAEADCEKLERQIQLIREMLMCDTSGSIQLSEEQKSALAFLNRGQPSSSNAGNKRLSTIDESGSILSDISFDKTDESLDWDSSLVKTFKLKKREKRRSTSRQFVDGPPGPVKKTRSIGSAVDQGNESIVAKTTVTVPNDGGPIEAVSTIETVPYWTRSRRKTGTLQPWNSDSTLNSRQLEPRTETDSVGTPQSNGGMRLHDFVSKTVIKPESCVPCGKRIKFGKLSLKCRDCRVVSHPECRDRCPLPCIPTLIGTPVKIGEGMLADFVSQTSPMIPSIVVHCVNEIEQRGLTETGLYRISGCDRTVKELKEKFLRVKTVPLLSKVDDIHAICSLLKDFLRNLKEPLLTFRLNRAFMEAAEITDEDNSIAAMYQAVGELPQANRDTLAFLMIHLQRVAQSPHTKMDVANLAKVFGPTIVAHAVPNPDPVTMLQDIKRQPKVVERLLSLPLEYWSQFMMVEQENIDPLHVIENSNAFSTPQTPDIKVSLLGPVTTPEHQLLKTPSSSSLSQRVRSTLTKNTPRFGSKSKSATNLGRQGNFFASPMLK

T1 sequence (P63165 whole entry): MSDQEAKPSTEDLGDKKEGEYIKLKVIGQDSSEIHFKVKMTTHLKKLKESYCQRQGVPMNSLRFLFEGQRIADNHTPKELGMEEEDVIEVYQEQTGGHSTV
Galanin receptor type 3, sequence (O60755 whole entry): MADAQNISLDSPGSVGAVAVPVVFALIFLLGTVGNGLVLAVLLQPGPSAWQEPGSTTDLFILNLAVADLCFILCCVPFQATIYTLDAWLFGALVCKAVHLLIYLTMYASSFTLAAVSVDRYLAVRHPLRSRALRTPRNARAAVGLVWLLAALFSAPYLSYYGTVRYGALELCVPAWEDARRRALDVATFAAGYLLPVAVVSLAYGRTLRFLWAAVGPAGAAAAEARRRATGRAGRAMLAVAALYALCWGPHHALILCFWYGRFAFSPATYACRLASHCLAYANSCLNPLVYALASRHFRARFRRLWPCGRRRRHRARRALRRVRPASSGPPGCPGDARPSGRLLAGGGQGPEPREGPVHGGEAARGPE
T7 sequence (Q00975 whole entry): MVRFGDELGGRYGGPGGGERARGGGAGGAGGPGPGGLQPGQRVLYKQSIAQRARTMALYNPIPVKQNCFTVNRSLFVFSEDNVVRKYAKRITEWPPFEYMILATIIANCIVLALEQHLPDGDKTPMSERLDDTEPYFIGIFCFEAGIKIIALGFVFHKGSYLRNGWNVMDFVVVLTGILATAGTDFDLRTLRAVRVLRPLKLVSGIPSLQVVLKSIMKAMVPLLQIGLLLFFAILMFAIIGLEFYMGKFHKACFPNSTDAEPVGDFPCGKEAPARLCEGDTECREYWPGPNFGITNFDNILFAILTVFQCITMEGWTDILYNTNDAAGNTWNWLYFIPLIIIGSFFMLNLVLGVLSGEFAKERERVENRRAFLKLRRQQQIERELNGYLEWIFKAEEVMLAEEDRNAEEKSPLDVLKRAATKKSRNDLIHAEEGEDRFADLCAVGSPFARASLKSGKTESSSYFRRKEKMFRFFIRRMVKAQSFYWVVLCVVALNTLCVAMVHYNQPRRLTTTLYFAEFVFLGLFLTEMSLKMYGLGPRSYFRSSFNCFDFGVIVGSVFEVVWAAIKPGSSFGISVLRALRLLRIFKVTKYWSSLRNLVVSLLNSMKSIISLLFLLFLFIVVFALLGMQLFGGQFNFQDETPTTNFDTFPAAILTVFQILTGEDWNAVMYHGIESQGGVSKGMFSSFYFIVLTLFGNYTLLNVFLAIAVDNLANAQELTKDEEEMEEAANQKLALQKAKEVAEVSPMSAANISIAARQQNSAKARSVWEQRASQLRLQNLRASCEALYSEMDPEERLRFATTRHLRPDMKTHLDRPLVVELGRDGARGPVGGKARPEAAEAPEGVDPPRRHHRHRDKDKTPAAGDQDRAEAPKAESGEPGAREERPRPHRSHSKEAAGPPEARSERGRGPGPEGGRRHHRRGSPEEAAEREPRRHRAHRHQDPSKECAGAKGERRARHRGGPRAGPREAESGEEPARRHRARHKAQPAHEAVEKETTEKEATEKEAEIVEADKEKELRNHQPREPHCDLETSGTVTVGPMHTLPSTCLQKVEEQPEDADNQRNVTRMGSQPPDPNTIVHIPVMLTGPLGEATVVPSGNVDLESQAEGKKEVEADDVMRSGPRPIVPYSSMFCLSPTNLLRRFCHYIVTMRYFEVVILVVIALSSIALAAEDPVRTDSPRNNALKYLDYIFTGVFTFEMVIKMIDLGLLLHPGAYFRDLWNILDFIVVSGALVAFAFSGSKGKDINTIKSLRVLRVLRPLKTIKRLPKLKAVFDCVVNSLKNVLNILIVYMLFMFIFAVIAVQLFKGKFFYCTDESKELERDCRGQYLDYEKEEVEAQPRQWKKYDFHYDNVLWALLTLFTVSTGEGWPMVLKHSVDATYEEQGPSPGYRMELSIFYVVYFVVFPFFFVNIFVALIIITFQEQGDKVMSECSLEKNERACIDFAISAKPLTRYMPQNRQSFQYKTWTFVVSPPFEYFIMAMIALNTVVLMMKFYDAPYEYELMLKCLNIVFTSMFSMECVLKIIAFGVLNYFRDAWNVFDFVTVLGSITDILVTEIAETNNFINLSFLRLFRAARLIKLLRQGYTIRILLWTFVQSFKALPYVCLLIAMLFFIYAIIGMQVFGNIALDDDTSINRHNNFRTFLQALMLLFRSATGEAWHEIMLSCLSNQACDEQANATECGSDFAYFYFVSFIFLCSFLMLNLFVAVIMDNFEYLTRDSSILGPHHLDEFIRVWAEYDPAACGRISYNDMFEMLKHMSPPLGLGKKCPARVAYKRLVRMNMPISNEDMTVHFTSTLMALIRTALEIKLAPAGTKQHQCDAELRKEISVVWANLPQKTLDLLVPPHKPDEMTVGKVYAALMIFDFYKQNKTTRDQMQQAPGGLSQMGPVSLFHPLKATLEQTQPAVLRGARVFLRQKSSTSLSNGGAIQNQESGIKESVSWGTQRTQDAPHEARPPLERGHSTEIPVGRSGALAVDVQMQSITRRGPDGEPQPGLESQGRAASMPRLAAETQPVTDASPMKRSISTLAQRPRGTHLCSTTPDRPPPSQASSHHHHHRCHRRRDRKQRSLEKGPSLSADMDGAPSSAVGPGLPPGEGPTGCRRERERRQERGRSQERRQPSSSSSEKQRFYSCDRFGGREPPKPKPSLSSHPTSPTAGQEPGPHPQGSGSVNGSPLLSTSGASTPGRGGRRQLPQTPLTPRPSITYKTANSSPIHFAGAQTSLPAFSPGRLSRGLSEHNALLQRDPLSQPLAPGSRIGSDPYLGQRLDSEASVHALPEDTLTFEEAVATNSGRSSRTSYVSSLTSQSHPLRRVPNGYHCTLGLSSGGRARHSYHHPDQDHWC
T7 sequence (Q02410 whole entry): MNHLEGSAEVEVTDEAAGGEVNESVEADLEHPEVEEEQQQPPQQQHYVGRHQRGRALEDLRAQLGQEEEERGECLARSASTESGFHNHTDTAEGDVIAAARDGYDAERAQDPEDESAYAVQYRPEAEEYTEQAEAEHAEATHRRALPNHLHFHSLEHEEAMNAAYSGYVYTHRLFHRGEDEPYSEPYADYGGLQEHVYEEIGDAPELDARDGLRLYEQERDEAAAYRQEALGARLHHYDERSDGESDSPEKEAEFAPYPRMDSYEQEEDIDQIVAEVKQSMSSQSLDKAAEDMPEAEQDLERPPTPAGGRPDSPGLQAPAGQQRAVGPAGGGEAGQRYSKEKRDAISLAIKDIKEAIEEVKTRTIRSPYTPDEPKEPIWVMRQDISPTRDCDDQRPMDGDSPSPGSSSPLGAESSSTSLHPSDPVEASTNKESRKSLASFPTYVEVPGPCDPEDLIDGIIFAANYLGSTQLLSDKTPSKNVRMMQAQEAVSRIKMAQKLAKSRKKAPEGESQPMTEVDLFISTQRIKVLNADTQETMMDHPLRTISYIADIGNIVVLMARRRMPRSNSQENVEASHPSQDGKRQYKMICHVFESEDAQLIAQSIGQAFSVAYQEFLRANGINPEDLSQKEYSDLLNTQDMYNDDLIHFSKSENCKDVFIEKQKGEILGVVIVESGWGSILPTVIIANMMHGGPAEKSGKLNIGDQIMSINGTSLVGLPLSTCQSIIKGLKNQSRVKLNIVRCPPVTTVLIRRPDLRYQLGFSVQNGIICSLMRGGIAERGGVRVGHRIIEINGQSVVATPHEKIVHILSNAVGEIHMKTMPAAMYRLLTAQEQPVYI
Beta Lactamase, sequence (Q932Y6 whole entry): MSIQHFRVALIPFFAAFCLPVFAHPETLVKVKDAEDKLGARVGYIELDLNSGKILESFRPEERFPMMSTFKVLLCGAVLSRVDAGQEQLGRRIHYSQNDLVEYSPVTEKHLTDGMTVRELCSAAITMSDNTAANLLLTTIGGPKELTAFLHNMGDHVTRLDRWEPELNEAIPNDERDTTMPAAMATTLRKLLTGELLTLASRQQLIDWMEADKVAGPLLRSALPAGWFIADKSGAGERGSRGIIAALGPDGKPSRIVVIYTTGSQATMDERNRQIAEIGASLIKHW
Beta-galactosidase, sequence (Q8VNN2 whole entry): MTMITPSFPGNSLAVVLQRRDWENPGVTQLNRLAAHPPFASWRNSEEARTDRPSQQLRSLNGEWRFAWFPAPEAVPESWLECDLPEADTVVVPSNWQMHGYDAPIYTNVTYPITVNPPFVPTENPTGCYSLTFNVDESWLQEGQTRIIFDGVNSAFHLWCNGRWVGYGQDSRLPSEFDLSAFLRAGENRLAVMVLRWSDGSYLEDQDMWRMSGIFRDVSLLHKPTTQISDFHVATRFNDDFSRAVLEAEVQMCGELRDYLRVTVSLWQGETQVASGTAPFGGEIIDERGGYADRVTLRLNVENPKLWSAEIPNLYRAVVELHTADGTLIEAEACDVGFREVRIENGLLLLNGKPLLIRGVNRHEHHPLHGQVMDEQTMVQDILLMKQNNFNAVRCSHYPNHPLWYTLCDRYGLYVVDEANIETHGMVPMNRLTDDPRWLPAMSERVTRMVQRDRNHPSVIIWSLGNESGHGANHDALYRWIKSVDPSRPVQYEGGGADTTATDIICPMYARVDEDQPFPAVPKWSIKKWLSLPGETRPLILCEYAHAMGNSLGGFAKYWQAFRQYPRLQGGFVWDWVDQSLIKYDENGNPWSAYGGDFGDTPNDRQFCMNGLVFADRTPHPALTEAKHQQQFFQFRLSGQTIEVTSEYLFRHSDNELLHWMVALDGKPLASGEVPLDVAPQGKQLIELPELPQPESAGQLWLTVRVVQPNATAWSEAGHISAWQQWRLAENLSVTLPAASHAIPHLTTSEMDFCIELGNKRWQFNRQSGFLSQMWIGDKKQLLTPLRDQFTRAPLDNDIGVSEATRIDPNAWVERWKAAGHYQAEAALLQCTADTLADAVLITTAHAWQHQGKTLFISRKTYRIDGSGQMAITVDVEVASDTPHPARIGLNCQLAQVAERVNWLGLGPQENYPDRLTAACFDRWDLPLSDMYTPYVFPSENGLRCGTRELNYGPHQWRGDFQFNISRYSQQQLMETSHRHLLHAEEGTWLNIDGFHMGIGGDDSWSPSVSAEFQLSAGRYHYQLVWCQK

Cc1cc(C)c(S(=O)(=O)N2CCN(C(=O)C3COc4ccccc4O3)CC2)c(C)c1 (stereo not drawn)
IC50 (Beta-galactosidase): > 80 µM (inactive)

Cc1ccc(-c2sc(C(=O)NN)c(C)c2C#N)cc1
IC50 (Galanin receptor type 3): > 29.9 µM (inactive) | EC50 (cells [1]): > 29.9 µM (inactive)

COc1cc(/C=C2\SC(N)=NC2=O)ccc1OCC(=O)Nc1ccc(C)cc1
IC50 [2]: 28.3 µM (inactive)

Cc1ccccc1OCCCN1C(=O)C(=O)c2cccc(C)c21
IC50 [3]: > 122 µM (inactive)

O=C(NC1CC1)c1cc(-c2ccco2)nc2ccccc12
IC50 [4]: 1.71 µM (active) | IC50 [5]: > 66.6 µM (inactive) | IC50 [6]: 8.06 µM (active)

Cc1c(Cl)c(C(=O)NN=C(S)NCc2ccco2)nn1C
IC50 [3]: > 122 µM (inactive)

Cc1ccc(-c2cnc3c(Cl)c(C)nn3c2)cc1
AC50 [7]: 5.87 µM (active) | AC50 [8]: 40.8 µM (active) | AC50 [9]: 7.53 µM (active) | AC50 [10]: 8.19 µM (active) | AC50 [11]: 31.5 µM (active)

O=C(CSc1nnc(Cn2nnc3ccccc32)o1)N(Cc1ccc(Cl)cc1)c1ccccc1
AC50 (INS1): 4.83 µM (active) | AC50 [12]: 2.29 µM (active) | AC50 [13]: 6.74 µM (active) | AC50 [14]: 11.9 µM (active) | IC50 (Galanin receptor type 3): 1.11 µM (active) | EC50 (cells [1]): > 29.9 µM (inactive) | IC50 [15]: 4.19 µM (active)

C/C(=C\c1ccccc1)CN1CCN(c2ccccc2)CC1
EC50 (Mu-type opioid receptor): 92.5 µM (inactive) | EC50 [16]: 76.1 µM (inactive)

CCC1CCCCN1C(=O)CCS(=O)(=O)c1ccccc1 (stereo not drawn)
IC50 (cells [17]): > 67.6 µM (inactive) | IC50 [18]: > 67.6 µM (inactive)

Cc1cccc(N2C(=O)/C(=C\c3ccc(C(=O)O)cc3)c3ccccc3C2=O)c1
IC50 [19]: > 100 µM (inactive) | IC50 [20]: 6.45 µM (active)

O=C(CSc1ccc(Br)cc1)N1CCN(C(=O)c2ccco2)CC1
IC50 (Beta-galactosidase): > 80 µM (inactive)

COc1ccc(/C(C)=N/NC(=O)c2nnn(-c3nonc3N)c2-c2ccccc2)cc1
IC50 (Beta Lactamase): > 59.6 µM (inactive) | IC50 (Beta-lactamase [21]): > 59.6 µM (inactive) | IC50 (Beta-lactamase [22]): > 59.6 µM (inactive) | IC50 [23]: 30.2 µM (active) | IC50 [24]: 8.15 µM (active) | IC50 (Prothrombin): > 100 µM (inactive) | IC50 [25]: > 80 µM (inactive) | IC50 [26]: 35.2 µM (inactive)

O=C(NCCc1ccccc1Cl)[C@@H]1CCCN1C(=O)[C@@H](NS(=O)(=O)c1ccc(F)cc1F)c1ccccc1
IC50 (cells [27]): > 29.9 µM (inactive) | EC50 [28]: 12.4 µM (inactive) | IC50 [29]: 5.69 µM (active) | EC50 (cells [30]): > 29.9 µM (inactive)

CC(C)n1cc(/C=N/Nc2ccc(Cl)c(C(=O)O)c2)c2ccccc21
IC50 (Beta Lactamase): > 59.6 µM (inactive) | IC50 [31]: 41.8 µM (active) | IC50 [32]: > 50 µM (inactive) | IC50 (Beta-lactamase [21]): > 59.6 µM (inactive) | IC50 (Beta-lactamase [22]): > 59.6 µM (inactive) | IC50 [5]: > 66.6 µM (inactive) | IC50 [6]: 3.26 µM (active) | IC50 [33]: 102 µM (active)

— ChEMBL document CHEMBL1201862, “PubChem BioAssay data set” (2004)
